Measured values: article PMC3914206

Experiments:
panel of 442 kinases [1] = biological target: T1, panel of 442 kinases (Homo sapiens, UniProt Q56UN5); type: binding; settings: kinase YSK4; compound concentration 10 µM
T1 construct: purchased KINOMEscan
T1 sequence (Q56UN5 1-1328): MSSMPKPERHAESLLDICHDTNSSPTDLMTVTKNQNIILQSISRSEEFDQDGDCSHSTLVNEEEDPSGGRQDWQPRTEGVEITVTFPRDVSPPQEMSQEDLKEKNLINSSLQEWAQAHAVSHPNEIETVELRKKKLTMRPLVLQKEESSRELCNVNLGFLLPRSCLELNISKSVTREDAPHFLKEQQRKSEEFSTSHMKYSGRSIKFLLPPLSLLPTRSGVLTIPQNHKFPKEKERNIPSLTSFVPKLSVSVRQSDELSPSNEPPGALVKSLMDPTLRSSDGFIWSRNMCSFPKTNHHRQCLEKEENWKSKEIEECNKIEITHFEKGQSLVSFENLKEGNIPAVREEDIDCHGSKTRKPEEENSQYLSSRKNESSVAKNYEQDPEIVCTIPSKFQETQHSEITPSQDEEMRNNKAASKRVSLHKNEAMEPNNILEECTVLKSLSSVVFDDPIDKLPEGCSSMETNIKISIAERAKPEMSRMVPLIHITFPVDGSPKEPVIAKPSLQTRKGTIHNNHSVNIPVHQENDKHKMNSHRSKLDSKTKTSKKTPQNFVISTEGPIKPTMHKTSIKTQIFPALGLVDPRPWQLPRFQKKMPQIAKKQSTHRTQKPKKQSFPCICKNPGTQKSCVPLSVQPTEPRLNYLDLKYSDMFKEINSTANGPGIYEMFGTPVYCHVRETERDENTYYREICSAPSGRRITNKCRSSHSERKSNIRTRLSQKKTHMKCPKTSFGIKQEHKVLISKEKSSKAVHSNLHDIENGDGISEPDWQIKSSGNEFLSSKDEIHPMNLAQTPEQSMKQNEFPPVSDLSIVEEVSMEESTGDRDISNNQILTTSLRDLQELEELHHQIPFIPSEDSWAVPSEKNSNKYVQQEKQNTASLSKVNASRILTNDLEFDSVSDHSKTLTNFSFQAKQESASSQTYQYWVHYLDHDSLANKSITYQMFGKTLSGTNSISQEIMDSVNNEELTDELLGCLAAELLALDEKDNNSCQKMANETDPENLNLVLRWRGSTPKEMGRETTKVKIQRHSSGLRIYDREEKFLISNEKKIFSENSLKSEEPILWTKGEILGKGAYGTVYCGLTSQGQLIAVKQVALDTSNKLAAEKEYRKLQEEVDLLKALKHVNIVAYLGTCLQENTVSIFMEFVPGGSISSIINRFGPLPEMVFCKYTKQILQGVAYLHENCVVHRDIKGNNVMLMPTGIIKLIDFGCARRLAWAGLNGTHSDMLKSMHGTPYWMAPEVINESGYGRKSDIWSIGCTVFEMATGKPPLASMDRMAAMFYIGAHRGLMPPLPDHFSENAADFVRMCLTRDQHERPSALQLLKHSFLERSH
From the text: (§1) We assessed the selectivity of members of this scaffold using the KINOMEscan methodology across a near comprehensive panel of 442 kinases [[18,27]].

panel of 442 kinases [2] = biological target: T2, panel of 442 kinases (Homo sapiens, UniProt Q9UEW8); type: binding; settings: kinase STK39; compound concentration 10 µM
T2 construct: purchased KINOMEscan
From the text: as §1

Row | SMILES | % Ctrl, YSK4 (panel of 442 kinases [1]) [% Ctrl] | % Ctrl, STK39 (panel of 442 kinases [2]) [% Ctrl]
1 | COc1cc(C(=O)N2CCC(N3CCN(C)CC3)CC2)ccc1Nc1ncc2c(n1)N(C)c1ccccc1C(=O)N2C [15 (LRRK2-IN-1)] | 99 | 39
2 | COc1cc(C(=O)N2CCC(N3CCN(C)CC3)CC2)ccc1Nc1ncc2c(n1)N1CCc3cccc(c31)C(=O)N2C [Compound 24] | 24 | 100
3 | COc1cc(C(=O)N2CCC(N3CCN(C)CC3)CC2)ccc1Nc1ncc2c(n1)N(C1CCCC1)c1ccccc1C(=O)N2C [Compound 25, 11-cyclopentyl-2-((2-methoxy-4-(4-(4-methylpiperazin-1-yl)piperidine-1-carbonyl)phenyl)amino)-5-methyl-5H-benzo[e]pyrimido[5,4-b][1,4]diazepin-6(11H)-one] | 100 | 100
4 | CCOc1cc(C(=O)N2CCC(N3CCN(C)CC3)CC2)ccc1Nc1ncc2c(n1)N(C1CCCC1)c1ccccc1C(=O)N2C [Compound 26] | 100 | 100
